Experimental data: patent US9938258B2 (Karyopharm Therapeutics Inc., priority 2012, dated 2018)
pIC50: −log10 of the molar value.

What was measured:
[1] = system: MS751 cells; assay: MTT cell proliferation assay, MS751; type: cell-based, human; conditions: Homo sapiens, MS751, MS751 cells, approximately 64-72 hours incubation; read-out: MTT Assay IC50, MS751
In short: (§1)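 Cells plated at 5,000-10,000/well and attached overnight, then treated with eight compound concentrations from 1 nM to 30 μM. MTT added ~4 h, formazan solubilised and read at 490 nm. Percent inhibition versus negative control = (1-(ODo/OD))×100, mostly in duplicate, mean ± SE.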

[2] = system: Z138 cells; assay: MTT cell proliferation assay, Z138; type: cell-based; conditions: Homo sapiens, Z-138, Z138 cells, approximately 64-72 hours incubation; read-out: MTT Assay IC50, Z138
In short: as §1

[3] = system: 3T3 cells; assay: MTT cell proliferation assay, 3T3; type: cell-based, mouse; conditions: Mus musculus, NIH3T3, 3T3 cells, approximately 64-72 hours incubation; read-out: MTT Assay IC50, 3T3
In short: as §1

Q: How did the pIC50 [1] turn out when `CC(=O)c1ccc(-c2cc(Cl)c3c(c2)CC(CNC(=O)/C=C/c2ccc(N(C)C)nc2)O3)s1` (stereo not drawn) [Compound 295, (E)-N-((5-(5-acetylthiophen-2-yl)-7-chloro-2,3-dihydrobenzofuran-2-yl)methyl)-3-(6-(dimethylamino)pyridin-3-yl)acrylamide] was run?
A: < 4.52

Q: What about the pIC50 [2] of the same compound?
A: < 4.52

Q: And the pIC50 [3]?
A: < 4.52

Q: `COc1ccc(/C=C/C(=O)NCC2Cc3cc(-c4ccc(C(C)=O)s4)cc(Cl)c3O2)cn1` (stereo not drawn) [Compound 296, (E)-N-((5-(5-acetylthiophen-2-yl)-7-chloro-2,3-dihydrobenzofuran-2-yl)methyl)-3-(6-methoxypyridin-3-yl)acrylamide] was tested. Which pIC50 [1] did it give?
A: 4.52 to 5.30

Q: What about the pIC50 [2] of the same compound?
A: 4.52 to 5.30

Q: And the pIC50 [3]?
A: < 4.52

Q: With `CC(=O)c1ccc(-c2cc(Cl)c3c(c2)CC(CNC(=O)/C=C/c2ccc(-c4ccc(F)cc4)s2)O3)s1` (stereo not drawn) [Compound 297, (E)-N-((5-(5-acetylthiophen-2-yl)-7-chloro-2,3-dihydrobenzofuran-2-yl)methyl)-3-(5-(4-fluorophenyl)thiophen-2-yl)acrylamide] as the compound, how does the pIC50 [1] read?
A: < 4.52

Q: And the pIC50 [2]?
A: < 4.52

Q: And the pIC50 [3]?
A: < 4.52

Q: With `CC(=O)c1ccc(-c2cc(Cl)c3c(c2)CC(CNC(=O)/C=C/c2cncc(F)c2)O3)s1` (stereo not drawn) [Compound 298, (E)-N-((5-(5-acetylthiophen-2-yl)-7-chloro-2,3-dihydrobenzofuran-2-yl)methyl)-3-(5-fluoropyridin-3-yl)acrylamide] as the compound, how does the pIC50 [1] read?
A: < 4.52

Q: What about the pIC50 [2] of the same compound?
A: 5.30 to 7.00

Q: And the pIC50 [3]?
A: < 4.52

Q: What does the source list for `CC(=O)c1ccc(-c2cc(Cl)c3c(c2)CC(CNC(=O)/C=C\c2cccnc2)O3)s1` (stereo not drawn) [Compound 299, (Z)-N-((5-(5-acetylthiophen-2-yl)-7-chloro-2,3-dihydrobenzofuran-2-yl)methyl)-3-(pyridin-3-yl)acrylamide]?
A: pIC50 [1]: 5.30 to 7.00; pIC50 [2]: 5.30 to 7.00; pIC50 [3]: < 4.52

Q: How did the pIC50 [1] turn out when `Cc1noc(C)c1-c1cc(Cl)c2c(c1)CC(CNC(=O)/C=C/c1ccc(N)nc1)O2` (stereo not drawn) [Compound 300, (E)-3-(6-aminopyridin-3-yl)-N-((7-chloro-5-(3,5-dimethylisoxazol-4-yl)-2,3-dihydrobenzofuran-2-yl)methyl)acrylamide] was run?
A: 5.30 to 7.00

Q: What about the pIC50 [2] of the same compound?
A: > 7.00

Q: What about the pIC50 [3] of the same compound?
A: < 4.52

Q: With `CC(=O)c1ccc(-c2cc(Cl)c3c(c2)CC(CNC(=O)/C=C/c2cc(C)n(-c4ccccc4)c2C)O3)s1` (stereo not drawn) [Compound 301, (E)-N-((5-(5-Acetylthiophen-2-yl)-7-chloro-2,3-dihydrobenzofuran-2-yl)methyl)-3-(2,5-dimethyl-1-phenyl-1H-pyrrol-3-yl)acrylamide] as the compound, how does the pIC50 [1] read?
A: < 4.52

Q: What about the pIC50 [2] of the same compound?
A: < 4.52

Q: And the pIC50 [3]?
A: < 4.52

Q: With `CC(=O)c1ccc(Oc2cc(Cl)c3c(c2)CC(CNC(=O)/C=C/c2cccnc2)O3)s1` (stereo not drawn) [Compound 303, (E)-N-((5-(5-acetylthiophen-2-yloxy)-7-chloro-2,3-dihydrobenzofuran-2-yl)methyl)-3-(pyridin-3-yl)acrylamide] as the compound, how does the pIC50 [1] read?
A: 5.30 to 7.00

Q: What about the pIC50 [2] of the same compound?
A: 5.30 to 7.00

Q: What about the pIC50 [3] of the same compound?
A: 5.30 to 7.00

Q: With `CC(C)(O)c1ccc(-c2cc(Cl)c3c(c2)CC(CNC(=O)/C=C/c2cccnc2)O3)s1` (stereo not drawn) [Compound 304, (E)-N-((7-chloro-5-(5-(2-hydroxypropan-2-yl)thiophen-2-yl)-2,3-dihydrobenzofuran-2-yl)methyl)-3-(pyridine-3-yl)acrylamide] as the compound, how does the pIC50 [1] read?
A: > 7.00

Q: And the pIC50 [2]?
A: > 7.00

Q: What about the pIC50 [3] of the same compound?
A: 5.30 to 7.00

Q: What does the source list for `CC(=O)c1ccc(-c2cccc3c2OC(CNC(=O)/C=C/c2ccc(N)nc2)C3)s1` (stereo not drawn) [Compound 305, (E)-N-((7-(5-Acetylthiophen-2-yl)-2,3-dihydrobenzofuran-2-yl)methyl)-3-(6-aminopyridin-3-yl)acrylamide]?
A: pIC50 [1]: 5.30 to 7.00; pIC50 [2]: 5.30 to 7.00; pIC50 [3]: 4.52 to 5.30

Q: Which results are given for `CC(O)c1ccc(-c2cc(Cl)c3c(c2)CC(CNC(=O)/C=C/c2ccc(N)nc2)O3)s1` (stereo not drawn) [Compound 306, (E)-3-(6-aminopyridin-3-yl)-N-((7-chloro-5-(5-(1-hydroxyethyl)thiophen-2-yl)-2,3-dihydrobenzofuran-2-yl)methyl)acrylamide]?
A: pIC50 [1]: 5.30 to 7.00; pIC50 [2]: 5.30 to 7.00; pIC50 [3]: < 4.52
